Measurements taken from EP0979827A1, “Peptides having tachykinin antagonist activity, a process for preparation thereof and pharmaceutical compositions comprising the same” (Boehringer Ingelheim Pharma KG, priority 1992, dated 1994).

What follows are compounds tested against T1, NK1-Rezeptor (Substanz P-Rezeptor) (Homo sapiens, UniProt P25103) (assay: Receptor affinity for the NK1 receptor: displacement of 125I-labelled substance P on IM-9 cells). Conditions: humane Lymphoblastoma-Zellen (IM-9) mit klonierten NK1-Rezeptoren; Verdrängung von 125J-markierter Substanz P; read-out: IC50-Werte.
T1 construct: expressed in transfected cells; host or cells: human lymphoblastoma cells IM-9
T1 sequence (P25103 whole entry): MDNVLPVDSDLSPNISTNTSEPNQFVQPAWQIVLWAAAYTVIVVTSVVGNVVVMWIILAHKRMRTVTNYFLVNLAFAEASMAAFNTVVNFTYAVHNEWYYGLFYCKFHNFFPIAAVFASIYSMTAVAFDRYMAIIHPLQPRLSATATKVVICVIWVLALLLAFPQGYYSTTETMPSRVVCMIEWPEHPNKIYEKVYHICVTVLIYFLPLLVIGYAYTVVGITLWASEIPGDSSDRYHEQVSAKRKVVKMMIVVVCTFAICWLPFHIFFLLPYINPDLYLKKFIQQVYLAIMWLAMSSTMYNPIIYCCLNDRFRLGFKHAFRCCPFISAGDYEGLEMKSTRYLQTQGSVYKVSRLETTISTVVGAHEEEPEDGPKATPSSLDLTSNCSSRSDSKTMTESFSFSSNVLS
Assay type: binding
Experimental: Die Rezeptoraffinität zum NK1-Rezeptor (Substanz P-Rezeptor) wurde an humanen Lymphoblastoma-Zellen (IM-9) mit klonierten NK1-Rezeptoren bestimmt, wobei die Verdrängung von ^125J-markierter Substanz P gemessen wird. Die so erhaltenen IC50-Werte betragen: Verb. A : 60 nM Verb. B : 21 nM Verb. C : 90 nM Verb. D : 45 nM [drawing 26]

IC50 [nM] | SMILES
45 | CN(Cc1ccccc1)C(=O)[C@H](CC1CCCCC1)NC(=O)[C@@H]1C[C@@H](O)CN1C(=O)c1c[nH]c2ccccc12 [Verb. D]
60 | CN(Cc1ccccc1)C(=O)[C@H](Cn1cccc1)NC(=O)[C@@H]1C[C@@H](O)CN1C(=O)c1c[nH]c2ccccc12 [Verb. A]
21 | CN(Cc1ccccc1)C(=O)[C@H](COCc1ccccc1)NC(=O)[C@@H]1C[C@@H](O)CN1C(=O)c1c[nH]c2ccccc12 [Verb. B]
